Experimental data taken from patent publication US20210393538A1, “SILICA-BASED DRUG NANOCAPSULES” (priority 2018, published 2021).
Where a name gives a salt, the structure may show the parent alone.

Assays:
[1] = test system: RAW264.7 cells; experiment: Macrophage viability (MTT, Live/Dead Calcein AM/EthD-III); assay type: cell-based; conditions: Mus musculus, RAW264.7 cells incubated 24 h
Description: In vitro cellular loading studies. RAW264.7 (murine macrophages) and U87MG (human glioblastoma) were purchased from ATCC. RAW264.7 cells were cultured in RPMI1640 medium (Corning, USA) supplemented with 10% FBS (Corning, USA) and 1% penicillin-streptomycin (MediaTech, USA). During the nanoparticle loading stage, FBS-free RPMI1640 medium was used for culturing. U87MG cells were grown in DMEM medium (Corning, USA) supplemented with 10% FBS, 1% non-essential amino acids, and 1% penicillin-streptomycin. These two cell lines were incubated under 37° C. and 5% CO2 in a humid chamber. […] To determine the amount of Dox loaded into cells, DSN-laden cells were counted and then lysed by sonication in PBS (pH 5.0). The amounts of released Dox was measured by spectroscopic analysis. The Dox content on a per cell basis was calculated compared with macrophages without nanoparticle loading. […] To evaluate the impact of loaded DSNs on macrophages, the viability change was first assessed at different time points post nanoparticle loading by 3-(4,5-dimethythiazon-2-yl)-2,5-diphenyl tetrazolium bromide (MTT) assay or Live/Dead Cytotoxicity assay and the results were compared with normal macrophages. […]

[2] = Toxicity studies; assay type: in vivo, balb/c mice
Description: Small animal models. For imaging and therapy studies, a U87MG subcutaneous mouse model was used. […] For toxicity studies, normal 5-6 week old balb/c mice (Envigo laboratories). All the animal studied were performed according to a protocol approved by the Institutional Animal Care and Use Committee (IACUC) of University of Georgia. Toxicity studies. Fifteen normal balb/c mice were randomly divided into 5 groups and received regimens specified in the in vivo therapy study section. The body weight and anal temperature of each mouse were measured daily at the same time (starting from 6 days before injection through Day 6). On Day 7, all mice were euthanized and the whole blood was collected. Part of the blood samples were used for a complete blood count (CBC) test. […] All tests were conducted by following the vendors' protocols. CRP and TNF-α kits were purchased from RayBiotech, ALT (MAK055) and AST (MAK052) kits from Sigma-Aldrich, and BUN from Arbor Assays. Each assay was repeated at least twice.

[3] = test system: U87MG tumors; experiment: In vivo therapy study; parameters: species or system nude mice
Description: Small animal models. For imaging and therapy studies, a U87MG subcutaneous mouse model was used. The animal model was established by subcutaneously inoculating 1 million U87MG cells onto the right hind leg or the right flank (for PET imaging only) of a 5-6 week old athymic female nude mice (Harlan). For toxicity studies, normal 5-6 week old balb/c mice (Envigo laboratories). All the animal studied were performed according to a protocol approved by the Institutional Animal Care and Use Committee (IACUC) of University of Georgia.
In vivo therapy study. Treatments started when tumor size reached 100-150 mm^3. 25 mice were randomly divided into 5 groups and were i.v. injected with PBS, free Dox, DSN-52 in PBS, MF cells, and DSN-MF cells on Day 0. Dox, DSN-52, and DSN-MF were injected at 3 mg Dox kg^−1, and 4 million cells were injected into the mice in MF and DSN-MF groups. The body weight and tumor volume of each mouse were measured every other day for 2 weeks. The tumor volume was calculated by the following equation: tumor volume=0.5×length×(width)^2, where length≥width. Mice were euthanized once the tumor volume was above 1,700 mm^3.

Structure (SMILES): COc1cccc2c1C(=O)c1c(O)c3c(c(O)c1C2=O)C[C@@](O)(C(=O)CO)C[C@@H]3O[C@H]1C[C@H](N)[C@H](O)[C@H](C)O1 [Dox, doxorubicin hydrochloride salt]
- IC50 [1]: 1.5 µg/mL
- Bands ([2]; CBC, Day 7): 12%
- HCT ([2]; CBC, Day 7): 48.9%
- HGB ([2]; CBC, Day 7): 44.0 g/dL
- Lymphs ([2]; CBC, Day 7): 82%
- MCH ([2]; CBC, Day 7): 31.6 pg
- MCHC ([2]; CBC, Day 7): 62 g/dL
- MCV ([2]; CBC, Day 7): 15.4 fL
- Monos ([2]; CBC, Day 7): 6%
- RBC ([2]; CBC, Day 7): 1.39e+07 µL⁻¹
- Segs ([2]; CBC, Day 7): 0%
- WBC ([2]; CBC, Day 7): 13490 µL⁻¹
- complete blood count (CBC) analysis, overall ([2]; Day 7): abnormalities
- body weight change ([2]; normal balb/c mice, Day 2, hydrochloride salt): small degree of body weight loss
- tumor growth inhibition (TGI) rate ([3]; Day 14, relative to the PBS group): 24.84%
- median survival ([3]; one i.v. dose on Day 0): 16 days
- average tumor volume on Day 14 ([3]; one i.v. dose on Day 0, 3 mg Dox kg^−1 and/or ˜4×10^6 cells per mouse): 1328.6 mm^3
